Source: patent publication US6740648B2, “Treatment of pulmonary hypertension” (Warner-Lambert Company, priority 2000, dated 2004)
Entries after “also recorded” stand apart in the source; their conditions may differ. Counter-ions that a name gives are not always drawn.

Assays:
[1] = system: AVP-induced platelet aggregation; assay: AVP-induced platelet aggregation in Phase I subjects (evidence of V1A antagonist activity); type: in vivo, human; settings: 20 mg/day orally or 2.5 mg IV
[2] = system: AVP-induced dermal vasoconstriction; assay: AVP-induced dermal vasoconstriction in Phase I subjects; type: in vivo, human; settings: 50 mg IV
V2-receptor = molecular target: T1, V2-receptor (Homo sapiens, UniProt P30518); assay: Aquaretic action in normal subjects (evidence of V2-receptor antagonism); type: in vivo; settings: for Dose at which aquaretic action with decrease in urine osmolarity starts: normal subjects
T1 construct: from tissue; host or cells: healthy human subjects in vivo (renal effect)
T1 sequence (P30518 whole entry): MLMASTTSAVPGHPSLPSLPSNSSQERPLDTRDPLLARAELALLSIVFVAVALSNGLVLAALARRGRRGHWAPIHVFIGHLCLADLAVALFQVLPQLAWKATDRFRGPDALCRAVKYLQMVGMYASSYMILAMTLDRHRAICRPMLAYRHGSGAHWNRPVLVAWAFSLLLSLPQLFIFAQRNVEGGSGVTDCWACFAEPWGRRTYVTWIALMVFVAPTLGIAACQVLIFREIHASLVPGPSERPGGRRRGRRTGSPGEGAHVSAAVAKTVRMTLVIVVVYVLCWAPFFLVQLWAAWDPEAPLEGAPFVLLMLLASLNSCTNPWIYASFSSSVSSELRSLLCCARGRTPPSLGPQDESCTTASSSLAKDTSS

[3] = Safety and tolerability in Phase I studies (approximately 250 subjects); type: in vivo, human
[4] = Example 1: double-blind, placebo-controlled IV dose-response study of cardiopulmonary hemodynamics in patients with Class III/IV heart failure; type: in vivo, human
Description: Patients must be receiving background therapy of diuretics, ACE inhibitors, and optionally digoxin and/or β-blocker; patients are stratified as to whether they are receiving concomitant β-blocker treatment. Patients should take their daily dose of concomitant heart failure medications within 2 hours of catheter insertion. No additional doses of background heart failure medications should be administered during the study treatment phase. After insertion of a balloon-flotation pulmonary artery catheter, serial measurements are obtained over an 8-to 18-hour baseline and stabilization period.
Hemodynamic parameters and vital signs are measured at baseline during the 2 hours prior to drug administration and 30 minutes, 1, 2, 3, 4, 6, 8, and 12 hours after start of the IV infusion. A urethral catheter is placed and urine output is measured hourly for 2 hours prior until 12 hours post-study drug administration. Fluid intake is restricted to 250 mL every 2 hours (except at time of IV infusion) from time of insertion of a Swan-Ganz catheter and throughout the treatment period. […] Serum electrolytes, BUN, creatinine, and serum osmolality are measured at baseline and 4 and 12 hours post treatment. Clinical laboratory and vasopressin plasma levels are measured at baseline and 12 hours post-drug administration. A numeric rating scale for assessing dyspnea is administered at baseline and 12 hours after study drug administration.
Patients refrain from taking concomitant heart failure medications during the 12-hour treatment period. Patients are stratified as to whether they are receiving concomitant treatment with a β-blocker. Hemodynamic parameters (cardiac output, intrapulmonary and systemic pressures) and vital signs are measured at 0.5, 1, 2, 3, 4, 6, 8, and 12 hours after start of the IV infusion. Clinical laboratory and vasopressin plasma levels are measured 12 hours postdose. […] Serum electrolytes, BUN, creatinine and serum osmolality are measured at 4 and 12 hours posttreatment. Hourly urine output measurements are obtained during the entire 12-hour treatment phase. The numeric rating scale for assessing dyspnea is administered 12 hours postadministration of study medication.
For this study, hemodynamic efficacy parameters of PCWP, CI, SVR, and PVR are evaluated in terms of their response profile. The response profile is assessed in terms of peak change, and area under the curve (AUC) delimited by the parameter change from baseline and measurement times. The peak change is defined as the maximum change from baseline, within the 3 to 6 hours after treatment administration, in the hemodynamic parameter of interest. The baseline value is considered the last acceptable measurement taken before treatment administration. The AUC is determined using the “linear trapezoidal rule,” which delimits areas of each trapezoid by: two points on the graph of change from baseline against time, perpendiculars from the points to the X-axis, and the X-axis are summed up to get AUC. If measurements are missing at certain times, the AUC are calculated using all other available observations. Dose response over the treatment groups are assessed for selected measures.
The secondary parameter of urine output is summarized at baseline, and each collection time. In addition, a numeric rating scale is used for assessing dyspnea. The corresponding change from baseline for these parameters is summarized. Descriptive summaries include mean, standard error, median, minimum, and maximum. Other concurrently measured hemodynamic parameters (ie, RA, PAs, PAd, cuff SBP, cuff DBP, calculated MAP, and HR) is also summarized.
Hemodynamic assessments are obtained at baseline and at 0.5, 1, 2, 3, 4, 6, 8, and 12 hours after administration of study medication.

[5] = Example 2: placebo-controlled study of YM087 20 mg IV twice, relief of pulmonary congestion in acute decompensated heart failure; type: in vivo, human; settings: listed as conivaptan, hydrochloride
Description: The trial explores the effect on relief of pulmonary congestion in patients with a history of NYHA Class II-IV heart failure hospitalized in a monitored unit for acute decompensated heart failure. Patients may be on background therapy optionally with ACE-inhibitors, diuretics, digoxin, and β-blockers as long as these medications (excepting diuretics) were initiated prior to admission. On arrival to the hospital, the patient was assessed for enrollment criteria. If the criteria are met, consent was obtained and the patient enrolled. Patients needing treatment with a parenteral inotropic agent (eg milrinone; dobutamine) or who are intubated are excluded. Respiratory rate will be measured. Clinical laboratory parameters are measured if not assessed within 2 hours of screening. Once consented, the patient's clinical distress was assessed by vital signs, the Acute Heart Failure Score, the Physician/Study Coordinator Clinical Assessment Scale for patient's respiratory and global status, and the Patient Visual Analog Scale for respiratory and global status. […] The baseline respiratory rate was measured 5 minutes prior to administration of study medication (must be ≧24 to meet inclusion criteria). […] Clinical laboratory parameters were assessed 8 and 24 hours after start of the first infusion of study medication. […]

[6] = Example 3: placebo-controlled study of YM087 40 mg IV twice, relief of pulmonary congestion in exacerbation of congestive heart failure; type: in vivo, human; settings: FIG. 8; listed as conivaptan, hydrochloride
Description: Patient who meets the inclusion criteria will then be randomized to 1 of 2 treatment group: double-blind treatment phase. […] Patients were administered 100% oxygen for 5 to 10 minutes, and blood gases were measured for assessment of A-a gradient. A baseline respiratory rate is measured 5 minutes prior to administration of study medication (RR must be ≧22 to meet inclusion criteria). […] All patients received usual care at the discretion of the investigator including IV loop diuretics, oxygen, morphine, and IV vasodilators. All patients were administered IV furosemide 20 mg as a minimum dose initially. No additional doses of diuretics should be administered for at least 2 hours after administration of the first dose of study medication; the dose was subsequently adjusted as needed based on the patient's clinical status at the discretion of the investigator. […] Body weight was assessed prior the second dose of study medication. […] During the study, the patient should be receiving the same % oxygen for all respiratory rate and A-a gradient assessments. […] Clinical laboratory parameters were assessed 8 and 24 hours after the first dose of study medication. Serum electrolytes, BUN, and creatinine were measured 4, 8, 12, 18, and 24 hours after administration of the first dose of study medication.

[7] = approximately 250 subjects treated

Duration of increased urine production rate postdosing (V2-receptor; IV 50 mg/day): ≤ 6 h
Duration of increased urine production rate postdosing (V2-receptor; IV doses up to 250 μg/kg): up to 3 hours
Dose at which aquaretic action with decrease in urine osmolarity starts (V2-receptor; IV): 50 µg/kg
Dose at which aquaretic action with decrease in urine osmolarity starts (V2-receptor; oral): 15 mg
SMILES: Cc1nc2c([nH]1)-c1ccccc1N(C(=O)c1ccc(NC(=O)c3ccccc3-c3ccccc3)cc1)CC2 [YM087, N-[4-(2-methyl-4,5,6-tetrahydroimidazo[4,5-d][1]benzazepin-6-ylcarbonyl)phenyl]biphenyl-2-carboxamide hydrochloride]
Inhibition of AVP-induced platelet aggregation [1]: Inhibition
Inhibition of AVP-induced dermal vasoconstriction [2]: Total inhibition
Tolerability of aquaretic effects at higher doses ([3]; 120 mg QD or 60 mg BID orally, or 50 mg IV): too uncomfortable to be tolerable
Drug-related serious adverse events [3, 7]: no drug-related serious adverse events were reported
Major safety concerns [3, 7]: no major safety concerns were identified
Urinary osmolarity ([3]; at higher doses): decreased
Plasma osmolarity ([3]; at higher doses, with or without an increase in plasma sodium): increased
Biochemical or hematological laboratory parameters ([3]; human, in vivo): No drug-related trend
Most frequent adverse events regardless of treatment association ([3]; human, in vivo): mild or moderate thirst and mild headache
Vital signs (blood pressure and heart rate) ([3]; human, in vivo): unaffected
Other adverse events ([3]; human, in vivo, hydrochloride): flushes, a sensation of cold extremities, abdominal complaints, abnormal stools, syncope, dizziness, palpitations, and postural hypotension
Grand mal seizure ([3]; one patient with severe heart failure, 40 mg BID): grand mal seizure that was possibly related to YM087
Leukopenia / decrease in white blood cell counts ([3]; three subjects who received YM087, one who received placebo, hydrochloride): minor, reversible decrease in white blood cell counts; also recorded: minor, reversible leukopenia
Reduction of right atrial pressure (RAP) ([4]; 40 mg IV dose, FIG. 1): ≤ 3 mm Hg
Reduction of pulmonary artery systolic pressure (PAs) ([4]; 40 mg IV dose, FIG. 2): ≤ 4 mm Hg
Right atrial pressure (RAP) ([4]; FIG. 1): reduce
Pulmonary artery systolic pressure (PAS) ([4]; FIG. 2): reduce
Mean arterial pressure (MAP) ([4]; FIG. 3): no effect
Systolic blood pressure (SBP) ([4]; FIG. 4): no effect
Systemic hemodynamics ([4]; human, in vivo): no effect
Changes in inspiratory crackles compared to placebo ([4]; post IV dose of 10, 20, 40 mg, FIG. 9): fewer patients on conivaptan had worsened inspiratory crackles
Patient visual analog scale of respiratory status ([5]; FIG. 6): improved respiratory status; also recorded: improvement
Patient numeric rating scale of respiratory status ([5]; FIG. 7): improved respiratory status; also recorded: improvement
Alveolar-arterial gradient compared to placebo [6]: improved; also recorded: apparent improvement
